*1 amine or outer side, *2 acyl side, *3 side chain or, on linkers, in order; H or OH if unused. Where no end group is shown, it is not given here. [ ]: non-standard residue; d: D form. γGlu = O=C(O)[C@H](CCC(=O)[*:2])N[*:1]; Abu = CC[C@H](N)C(=O)O
Target: T1, human calcium receptor (Homo sapiens, UniProt P41180)
T1 construct: expressed in transfected cells; host or cells: Xenopus laevis oocytes injected with receptor cRNA; the gene was amplified by PCR from human kidney cDNA (Clontech) and cloned in pBR322
T1 sequence (P41180 20-1078): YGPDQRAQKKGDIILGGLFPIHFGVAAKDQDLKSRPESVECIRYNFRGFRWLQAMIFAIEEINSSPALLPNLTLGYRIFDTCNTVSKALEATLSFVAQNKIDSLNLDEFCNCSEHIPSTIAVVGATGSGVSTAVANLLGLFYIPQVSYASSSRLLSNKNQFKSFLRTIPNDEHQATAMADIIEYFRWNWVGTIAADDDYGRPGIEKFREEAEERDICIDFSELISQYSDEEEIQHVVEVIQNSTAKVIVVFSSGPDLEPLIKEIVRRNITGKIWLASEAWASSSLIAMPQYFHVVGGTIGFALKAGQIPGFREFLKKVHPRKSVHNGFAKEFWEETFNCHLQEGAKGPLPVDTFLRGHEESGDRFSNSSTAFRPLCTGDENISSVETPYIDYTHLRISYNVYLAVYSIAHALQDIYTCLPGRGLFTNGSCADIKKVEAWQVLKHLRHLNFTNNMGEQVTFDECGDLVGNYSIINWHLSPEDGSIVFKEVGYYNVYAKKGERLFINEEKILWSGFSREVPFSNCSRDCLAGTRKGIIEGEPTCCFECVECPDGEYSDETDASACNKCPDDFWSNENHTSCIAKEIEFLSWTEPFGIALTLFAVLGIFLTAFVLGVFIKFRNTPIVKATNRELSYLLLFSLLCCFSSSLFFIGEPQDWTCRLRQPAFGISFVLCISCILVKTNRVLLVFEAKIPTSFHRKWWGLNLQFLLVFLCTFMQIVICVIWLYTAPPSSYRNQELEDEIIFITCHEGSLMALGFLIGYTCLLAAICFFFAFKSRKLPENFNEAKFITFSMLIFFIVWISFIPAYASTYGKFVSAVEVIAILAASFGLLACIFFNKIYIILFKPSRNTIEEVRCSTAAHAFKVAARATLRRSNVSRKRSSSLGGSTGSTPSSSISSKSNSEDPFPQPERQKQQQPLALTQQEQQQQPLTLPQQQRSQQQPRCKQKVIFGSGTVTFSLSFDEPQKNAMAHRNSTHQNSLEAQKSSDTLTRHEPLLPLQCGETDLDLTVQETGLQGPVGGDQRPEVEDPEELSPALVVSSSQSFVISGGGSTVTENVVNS
Experiment: Calcium receptor-activating effect, Ca ion concentration-dependent Cl ionic current in Xenopus laevis oocyte expression system
Type: cell-based
Conditions: for Activity (lowest concentration at which current is detected): peptide added at 1,000 to 0.1 μM, Ca ion concentration-dependent Cl response current, oocytes voltage-clamped at −70 mV
Experimental: For evaluation of the calcium receptor-activating effect, Ca ion concentration-dependent Cl ionic current measuring method using a Xenopus laevis oocyte expression system was used. If activator is added to Xenopus laevis oocytes in which the calcium receptor is expressed, intracellular Ca ions increase. Then, the Ca ion concentration-dependent Cl channel opens, and the intracellular current value changes as an ionic current. By measuring the change in the intracellular current value, whether the calcium receptor-activating effect is present or not can be determined.
Specifically, the abdomen of Xenopus laevis was opened, and an egg batch was taken out and then treated with a 1% collagenase solution at 20° C. for 2 hours to obtain individual oocytes. Into each oocyte, 50 nl of 1 μg/μl receptor cRNA or 50 nl of sterilized water per oocyte were injected by using a micro glass capillary, and the oocytes were cultured at 18° C. for 2 to 3 days. For the culture, a solution obtained by adding 2 mM of pyruvic acid, 10 U/ml of penicillin and 10 μg/ml of streptomycin to the solution in Reference Example 2 was used. After the culture, a test solution was added to the oocytes injected with cRNA or sterilized water. Electrophysiological measurement was performed by using an amplifier Geneclamp 500 (manufactured by Axon) and recording software AxoScope 9.0 (manufactured by Axon). The oocytes were voltage-clamped at −70 mV by the double electrode voltage clamp method, and the intracellular current via the Ca ion concentration-dependent Cl ion was measured. The maximum value of the intracellular currents was defined as the response current value.
The ability of L-amino acids to activate the calcium receptor was evaluated by using the method described in Reference Example 6. That is, oocytes injected with cRNA of the calcium receptor or sterilized water were prepared, and voltage-clamped at −70 mV by the double electrode voltage clamp method. To the voltage-clamped oocytes, alanine (10 mM), arginine (10 mM), asparagine (10 mM), aspartic acid (10 mM), cysteine (10 mM), glutamine (10 mM), glutamic acid (10 mM), glycine (10 mM), histidine (10 mM), isoleucine (10 mM), leucine (10 mM), lysine (10 mM), methionine (10 mM), phenylalanine (10 mM), proline (10 mM), serine (10 mM), threonine (10 mM), tryptophan (10 mM), tyrosine (10 mM), valine (10 mM), ornithine (10 mM), taurine (10 mM) or hydroxyproline (10 mM) was added, and Ca ion concentration-dependent Cl response current was measured. […] 25, 2000, 97(9): 4814-9.
The effect of D-cysteine for activating a calcium receptor was evaluated by using the method described in Reference Example 6. That is, oocytes injected with cRNA of the calcium receptor or sterilized water were prepared, and voltage-clamped at −70 mV by the double electrode voltage clamp method. To the voltage-clamped oocytes, D-cysteine (10 mM), L-cysteine (10 mM), D-tryptophan (10 mM) or L-tryptophan (10 mM) was added, and Ca ion concentration-dependent Cl response current was measured.
The effect of peptide for activating calcium receptor was evaluated by using the method described in Reference Example 6. That is, oocytes injected with cRNA of the calcium receptor or sterilized water were prepared, and voltage-clamped at −70 mV by the double electrode voltage clamp method. To the voltage-clamped oocytes, γ-Glu-Cys-Gly (50 μM), γ-Glu-Cys(SNO)-Gly (50 μM), γ-Glu-Ala (50 μM), γ-Glu-Gly (500 μM), γ-Glu-Cys (50 μM), γ-Glu-Met (500 μM), γ-Glu-Thr (50 μM), γ-Glu-Val (50 μM), γ-Glu-Orn (500 μM), Asp-Gly (1 mM), Cys-Gly (1 mM), Cys-Met (1 mM), Glu-Cys (50 μM), Gly-Cys (500 μM) or Leu-Asp (1 mM) was added, and Ca ion concentration-dependent Cl response current was measured.
The ability of a peptide to activate calcium receptor was evaluated in the same manner as that of Reference Example 10.

| Molecule | effect for activating calcium receptor (Cl response current) (peptide added at 50 μM) | Activity (lowest concentration at which current is detected) [µM] |
| --- | --- | --- |
| N[C@@H](CCC(=O)N[C@@H](CS)C(=O)NCC(=O)O)C(=O)O [γ-Glu-Cys-Gly, reference compound] | definite effect for activating calcium receptor |  |
| [γGlu]-Val-Gly |  | 0.1 |
| [γGlu]-[Abu]-Gly |  | 3 |
